Measured values reported in patent US6875757B2, “LPA receptor agonists and antagonists and methods of use” (University of Tennessee Research Foundation, priority 2000, dated 2005).

Legend:
PSP24 PLGFR = PSP24 PLGFR (Xenopus laevis, UniProt P79945); assay: Xenopus oocyte assay: LPA-induced oscillatory chloride currents (two-electrode voltage clamp); type: cell-based
Description: Xenopus oocytes which endogenously express PSP24 PLGFR were used to screen the newly designed and synthesized compounds for their LPA inhibitory activity.
(§1) Oocytes were obtained from xylazine-anesthetized adult Xenopus laevis frogs (Carolina Scientific, Burlington, N.C.) under aseptic conditions and prepared for experiment. […] Oocytes were kept in Barth's solution in an incubator between 17-20° C. and were used for 2-7 days after isolation.
(§2) Electrophysiological recordings were carried out using a standard two-electrode voltage-clamp amplifier holding the membrane potential at −60 mV (GeneClamp 500, Axon Instruments, Calif.). […] Membrane currents were recorded with a NIC-310 digital oscilloscope (Nicolet, Madison, Wis.). Applications were made at intervals of 15 mins (minimum) to allow for the appropriate washout and recovery from desensitization.
as §1
as §2, with “CA).” for “Calif.).”

[1] = system: G-protein coupled receptors for acetycholine; conditions: oocytes injected with rat brain polyA+ mRNA
Excerpt: (§3) To show the specificity of DGPP 8:0 for the LPA receptors expressed in the oocyte, the expression of neurotransmitter receptors was induced by the injection of polyA+ mRNA from rat brain.

[2] = system: G-protein coupled receptors for serotonin; conditions: oocytes injected with rat brain polyA+ mRNA
Excerpt: as §3

human Edg-4 = molecular target: T1, human Edg-4 (Homo sapiens, UniProt Q9HBW0); assay: Ca2+ responses (Fura-2) in RH7777 cells expressing Edg-4 (stable or transient); type: cell-based; conditions: 100 nM LPA 18:1 and 1 μM DGPP 8:0
T1 construct: expressed in transfected cells
Excerpt: RH7777 cells, stably expressing human Edg-4, were kindly provided by Dr. Kevin Lynch (University of Virginia, Charlottesville, Va.). Flag-tagged cDNA's encoding human Edg-4 and -7 inserted into the pCDNA3 expression plasmid (Invitrogen, Carlsbad, Calif.), were a generous gift from Dr. Junken Aoki (University of Tokyo, Tokyo, Japan). RH7777 and NIH3T3 cells were obtained from the American Type Culture Collection (Manassas, Va.). HEY cells were provided by Dr. Lisa Jennings (University of Tennessee, Memphis). All cell lines were maintained in Dulbecco's Modified Eagle's Medium (DMEM) containing 10% FBS and 2 mM glutamine. Oocytes were obtained from adult Xenopus laevis frogs as previously described (Tigyi et al., 1999).
(§4) RH7777 cells were transfected with the cDNA constructs encoding human Edg-2, Edg-4, or Edg-7 and then were subcloned into the pCDNA3 expression vector using the Cytofectene transfection reagent according to the manufacturers' protocol. Transfected cells were selected in DMEM containing 10% FBS and 1 mg/ml geneticin. Resistant cells were collected and subcloned by limiting dilution. The resulting clones were then screened using functional assays and RT-PCR analysis. Data are representative of three individual clones.
RH7777 cells were plated on polylysine-coated glass coverslips (Bellco, Vineland, N.J.) one day prior to transfection. The following day, cells were transfected overnight (16-18 hr) with 1 μg of plasmid DNA mixed with 6 μl of Cytofectene. The cells were then rinsed twice with DMEM and cultured in DMEM containing 10% FBS. The next day, the cells were rinsed with DMEM and serum was withdrawn for a minimum of 2 hr prior to monitoring intracellular Ca^2+.

human Edg-2 = molecular target: T2, human Edg-2 (Homo sapiens, UniProt Q92633); assay: Ca2+ responses (Fura-2) in RH7777 cells expressing Edg-2; type: cell-based
T2 construct: expressed in transfected cells
Description: as §4

NIH3T3 cells [3] = assay: LPA-elicited proliferation of NIH3T3 cells (cell counting); type: cell-based
Description: Proliferation of NIH3T3 cells was assessed by direct cell counting as previously described (Tigyi et al., 1999). NIH3T3 cells were plated in 24-well plates at a density of 10,000 cells/well, in DMEM containing 10% FBS. The following day, the cells were rinsed and serum starved in DMEM for 6 hr. Lipids were then added for 24 hr. Cell numbers were determined by counting in a Coulter counter (Coulter Electronics, Hialeah, Fla.).

human Edg-7 = molecular target: T3, human Edg-7 (Homo sapiens, UniProt Q9UBY5); assay: Ca2+ responses (Fura-2) in RH7777 cells expressing Edg-7; type: cell-based
T3 construct: Flag; expressed in transfected cells
T3 sequence (Q9UBY5 1-353): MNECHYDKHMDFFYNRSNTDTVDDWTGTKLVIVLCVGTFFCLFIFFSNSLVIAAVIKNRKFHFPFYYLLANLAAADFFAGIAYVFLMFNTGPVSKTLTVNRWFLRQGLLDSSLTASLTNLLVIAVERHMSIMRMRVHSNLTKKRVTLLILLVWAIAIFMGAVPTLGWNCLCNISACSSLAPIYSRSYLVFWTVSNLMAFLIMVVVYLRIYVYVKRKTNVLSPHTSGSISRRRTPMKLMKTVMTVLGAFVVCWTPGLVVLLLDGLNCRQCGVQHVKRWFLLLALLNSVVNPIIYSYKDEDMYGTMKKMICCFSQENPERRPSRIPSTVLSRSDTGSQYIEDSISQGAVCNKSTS
Description: as §4

HEY ovarian cancer cells = assay: Ca2+ responses in HEY ovarian cancer cells; type: cell-based; conditions: 100 nM LPA 18:1 mixed with 1 μM lipid
Excerpt: Likewise, PA 8:0 inhibited the Ca^2+ response to 6% of control, whereas PA 18:1 had no effect. HEY express mRNA transcripts for Edg-1, -2, -5, -7 receptors (FIG. 34C).

NIH3T3 cells [4] = system: NIH3T3 cells
Description: Data points from the intracellular Ca^2+ measurements represent the total peak area of the Ca^2+ transients elicited, as determined by the FLWinLab software (Perkin-Elmer, Wellesley, Mass.). Data points represent the average of at least 3 measurements±standard deviation. The significance of the data points was determined using the students t-test and values were considered significant at p<0.05.
The effect of DGPP 8:0 on LPA-elicited responses was also examined in mammalian systems that endogenously express LPA receptors. NIH3T3 cells were screened by RT-PCR for the presence of mRNA for the Edg and PSP24 receptors.

[5] = 10-fold excess: 100 nM LPA 18:1 and 1 μM DGPP 8:0
[6] = LPA constant at its EC50 (250 nM LPA 18:1), read-out: IC50, inhibition of LPA-elicited Ca2+ responses

Chain of PSP24 PLGFR (P79945 whole entry): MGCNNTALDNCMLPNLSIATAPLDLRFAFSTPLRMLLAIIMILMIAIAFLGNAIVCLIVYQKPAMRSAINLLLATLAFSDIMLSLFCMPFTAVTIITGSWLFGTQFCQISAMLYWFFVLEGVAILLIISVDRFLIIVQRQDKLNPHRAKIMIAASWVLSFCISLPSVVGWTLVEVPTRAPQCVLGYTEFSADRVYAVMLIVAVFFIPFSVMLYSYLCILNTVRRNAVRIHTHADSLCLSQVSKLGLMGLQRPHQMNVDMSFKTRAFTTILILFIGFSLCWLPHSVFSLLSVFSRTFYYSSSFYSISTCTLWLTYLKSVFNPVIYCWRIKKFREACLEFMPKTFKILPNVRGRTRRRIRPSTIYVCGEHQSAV
T2 sequence (Q92633 whole entry): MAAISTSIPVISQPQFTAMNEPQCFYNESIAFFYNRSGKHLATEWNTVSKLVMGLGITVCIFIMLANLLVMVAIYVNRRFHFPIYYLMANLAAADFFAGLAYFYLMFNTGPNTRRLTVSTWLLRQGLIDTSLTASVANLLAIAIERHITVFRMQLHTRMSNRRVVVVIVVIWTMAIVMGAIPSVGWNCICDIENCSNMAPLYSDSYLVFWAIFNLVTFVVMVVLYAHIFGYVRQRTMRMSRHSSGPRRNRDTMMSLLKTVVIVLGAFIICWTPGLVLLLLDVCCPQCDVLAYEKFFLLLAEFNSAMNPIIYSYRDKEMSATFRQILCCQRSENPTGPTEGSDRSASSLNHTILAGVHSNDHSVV
T1 sequence (Q9HBW0 whole entry): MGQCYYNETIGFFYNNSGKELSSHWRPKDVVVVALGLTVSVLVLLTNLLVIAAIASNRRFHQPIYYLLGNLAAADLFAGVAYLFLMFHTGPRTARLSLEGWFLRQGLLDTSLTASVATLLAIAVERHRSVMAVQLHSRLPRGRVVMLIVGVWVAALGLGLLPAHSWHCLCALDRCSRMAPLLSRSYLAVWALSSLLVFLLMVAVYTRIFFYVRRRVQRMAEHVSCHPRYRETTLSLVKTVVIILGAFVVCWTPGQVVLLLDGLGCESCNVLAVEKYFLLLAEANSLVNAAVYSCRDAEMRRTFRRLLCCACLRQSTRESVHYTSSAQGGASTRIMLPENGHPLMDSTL

## CCCCCCCC(=O)OC[C@H](COP(=O)(O)OP(=O)(O)O)OC(=O)CCCCCCC [DGPP 8:0, diacylglycerol pyrophosphate]
PSP24 PLGFR; 5 nM LPA 18:1 and 1 μM DGPP 8:0
  LPA response with compound applied extracellularly: completely inhibited
PSP24 PLGFR; 5 nM LPA 18:1 mixed with increasing DGPP 8:0, read-out: IC50, inhibition of Ca2+-mediated inward Cl- currents elicited by LPA
  IC50: 96 ± 21 nM
PSP24 PLGFR; 200 nM DGPP 8:0
  mechanism of action (shift of LPA 18:1 dose response curve): competitive
PSP24 PLGFR; after washing the oocyte
  reversibility of inhibition of LPA-induced chloride currents: reversible
PSP24 PLGFR; intracellular injection, estimated >300 nM, extracellular 5 nM LPA 18:1
  LPA response after intracellular injection of compound: elicited a response equal in size to that of the control
[1]
  inhibition of carbachol-elicited responses: did not inhibit
[2]
  inhibition of serotonin-elicited responses: did not inhibit
Human Edg-4; stable Edg-4
  effect on LPA-elicited Ca2+ responses: unaffected
Human Edg-4; transient Edg-4
  effect on LPA-elicited Ca2+ responses: not effected
Human Edg-2; 250 nM LPA 18:1 mixed with 10 μM lipid
  Ca2+ response, % of control: 50 % of control
Human Edg-2; [5]
  inhibition of LPA-elicited Ca2+ responses: approximately 50%
Human Edg-2; [6]
  IC50: 11000 ± 680 nM
Human Edg-2; constant DGPP 8:0, 3 μM
  mechanism of inhibition (shift of LPA dose response curve): competitive
NIH3T3 cells [3]; 5 μM LPA 18:1 mixed with 10 μM lipid, 24 hr
  effect on LPA-induced proliferation: significantly inhibited
NIH3T3 cells [3]; 10 μM lipid, solvent (BSA) in place of LPA 18:1, 24 hr
  effect on solvent-treated control cells: had no effect
Human Edg-7; 250 nM LPA 18:1 mixed with 500 nM lipid
  inhibition of the Ca2+ responses: 50%
Human Edg-7; [5]
  effect on LPA-elicited Ca2+ responses: completely abolished
Human Edg-7; [6]
  IC50: 285 ± 28 nM
Human Edg-7; constant DGPP 8:0, 250 nM
  mechanism of inhibition (shift of LPA dose response curve): competitive
HEY ovarian cancer cells
  LPA-elicited Ca2+ response, % of control: 12 % of control
NIH3T3 cells [4]; 100 nM LPA in the presence of 10 μM DGPP 8:0
  effect on LPA-elicited Ca2+ responses: significantly inhibited
NIH3T3 cells [4]; 100 nM S1P in the presence of 10 μM DGPP 8:0
  effect on S1P-elicited Ca2+ response: not effected
NIH3T3 cells [4]; 100-fold excess over LPA
  inhibition of the Ca2+ responses: 40%
